Measurements reported in PubChem BioAssay AID330 (DTP/NCI, 2004).
Several values for one entry are separate records, joined by “and”; a condition that tells them apart may be missing. Equal entries are not always repeated. Inconclusive results and toxic doses are left out.

System: P388 leukemia ip, CD2F1 mice, survival T/C
Assay: NCI In Vivo Anticancer Drug Screen. Data for tumor model P388 Leukemia (intraperitoneal) in CD2F1 (CDF1) mice
Conditions: endpoint: median survival time, higher = longer survival
Summary of the method: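 Mice carrying the transplanted tumor received test compound or vehicle. Survival was recorded in each group, and the value is the treated-group measurement divided by that of the vehicle-treated control group.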

[1] = dose: 25.0 mg/kg/injection, schedule: Q04DX003 (ip), vehicle: saline with Tween-80
[2] = dose: 100.0 mg/kg/injection, schedule: Q01DX001 (ip), vehicle: Klucel (hydroxypropylcellulose) (HPC)
[3] = dose: 50.0 mg/kg/injection, schedule: Q01DX009 (ip), vehicle: saline with Tween-80
[4] = dose: 100.0 mg/kg/injection, schedule: Q01DX009 (ip), vehicle: saline with Tween-80
[5] = dose: 200.0 mg/kg/injection, schedule: Q01DX009 (ip), vehicle: saline with Tween-80

## [O-][n+]1nn(CC(O)CCl)c2ccccc21 (stereo unspecified)
dose: 50.0 mg/kg/injection, schedule: Q01DX005 (ip), vehicle: saline with Tween-80
  T/C: 102 % of control
dose: 100.0 mg/kg/injection, schedule: Q01DX005 (ip), vehicle: saline with Tween-80
  T/C: 102 % of control
dose: 100.0 mg/kg/injection, schedule: Q04DX003 (ip), vehicle: saline with Tween-80
  T/C: 103 % of control
dose: 200.0 mg/kg/injection, schedule: Q01DX005 (ip), vehicle: saline with Tween-80
  T/C: 100 % of control
dose: 200.0 mg/kg/injection, schedule: Q04DX003 (ip), vehicle: saline with Tween-80
  T/C: 98 % of control
dose: 400.0 mg/kg/injection, schedule: Q04DX003 (ip), vehicle: saline with Tween-80
  T/C: 93 % of control

## N#CC1(C#N)C(c2ccccc2)C1(C#N)C#N
dose: 6.25 mg/kg/injection, schedule: Q04DX003 (ip), vehicle: saline sonified
  T/C: 115 % of control
dose: 12.5 mg/kg/injection, schedule: Q04DX003 (ip), vehicle: saline sonified
  T/C: 110 % of control
dose: 16.5 mg/kg/injection, schedule: Q04DX003 (ip), vehicle: saline with Tween-80
  T/C: 108 % of control
[1]
  T/C: 112 % of control

## O=C1NNC(=O)C1C(=O)Nc1ccccc1
dose: 0.93 mg/kg/injection, schedule: Q01DX005 (ip), vehicle: Klucel (hydroxypropylcellulose) (HPC)
  T/C: 100 % of control
dose: 1.87 mg/kg/injection, schedule: Q01DX005 (ip), vehicle: Klucel (hydroxypropylcellulose) (HPC)
  T/C: 103 % of control
dose: 3.75 mg/kg/injection, schedule: Q01DX005 (ip), vehicle: Klucel (hydroxypropylcellulose) (HPC)
  T/C: 100 % of control
dose: 15.0 mg/kg/injection, schedule: Q01DX005 (ip), vehicle: Klucel (hydroxypropylcellulose) (HPC)
  T/C: 113 % of control

## Cc1cc(=O)n2c3c(c4c(cc13)c(CBr)cc(=O)n4C)OC2
dose: 12.5 mg/kg/injection, schedule: Q01DX001 (ip), vehicle: Klucel (hydroxypropylcellulose) (HPC)
  T/C: 96 % of control
dose: 25.0 mg/kg/injection, schedule: Q01DX001 (ip), vehicle: Klucel (hydroxypropylcellulose) (HPC)
  T/C: 96 % of control
dose: 50.0 mg/kg/injection, schedule: Q01DX001 (ip), vehicle: Klucel (hydroxypropylcellulose) (HPC)
  T/C: 112 % of control
[2]
  T/C: 101 % of control

## CCOC(CSCC#N)OCC
dose: 12.5 mg/kg/injection, schedule: Q01DX009 (ip), vehicle: saline sonified
  T/C: 100 % of control
dose: 25.0 mg/kg/injection, schedule: Q01DX009 (ip), vehicle: saline sonified
  T/C: 95 % of control
dose: 50.0 mg/kg/injection, schedule: Q01DX009 (ip), vehicle: saline sonified
  T/C: 100 % of control

## COC(=O)CCc1onc(Br)c1CCl
[3]
  T/C: 110 % of control
[4]
  T/C: 115 % of control
[5]
  T/C: 119 % of control

## CC1(OC(=O)c2ccc(Cl)cc2)CC(C)(C)[N+]([O-])=N1 (stereo unspecified)
dose: 12.5 mg/kg/injection, schedule: Q01DX009 (ip), vehicle: other
  T/C: 103 % of control
dose: 25.0 mg/kg/injection, schedule: Q01DX009 (ip), vehicle: other
  T/C: 99 % of control
dose: 50.0 mg/kg/injection, schedule: Q01DX009 (ip), vehicle: other
  T/C: 99 % of control
dose: 100.0 mg/kg/injection, schedule: Q01DX009 (ip), vehicle: other
  T/C: 96 % of control
dose: 200.0 mg/kg/injection, schedule: Q01DX009 (ip), vehicle: other
  T/C: 99 % of control

## N#CC(C#N)=CNc1ccccc1
[3]
  T/C: 100 % of control
[4]
  T/C: 106 % of control
[5]
  T/C: 104 % of control

## CS(=O)(=O)OCCF
dose: 0.78 mg/kg/injection, schedule: Q01DX009 (ip), vehicle: saline with Tween-80
  T/C: 97 % of control
dose: 1.56 mg/kg/injection, schedule: Q01DX009 (ip), vehicle: saline with Tween-80
  T/C: 100 % of control
dose: 3.12 mg/kg/injection, schedule: Q01DX009 (ip), vehicle: saline with Tween-80
  T/C: 103 % of control
dose: 3.96 mg/kg/injection, schedule: Q04DX003 (ip), vehicle: saline
  T/C: 109 % of control
dose: 6.0 mg/kg/injection, schedule: Q04DX003 (ip), vehicle: saline
  T/C: 104 % of control
dose: 6.25 mg/kg/injection, schedule: Q01DX009 (ip), vehicle: saline with Tween-80
  T/C: 105 % of control and 111 % of control
dose: 9.0 mg/kg/injection, schedule: Q04DX003 (ip), vehicle: saline
  T/C: 118 % of control
dose: 12.5 mg/kg/injection, schedule: Q01DX009 (ip), vehicle: saline with Tween-80
  T/C: 89 % of control

## COc1cccc2c1C(=O)c1c(O)c3c(c(O)c1C2=O)C[C@@](O)(/C(C)=N/NC(=O)c1ccc(S(N)(=O)=O)cc1)C[C@@H]3OC1CC(N)C(O)C(C)O1 (stereo partly specified)
dose: 0.78 mg/kg/injection, schedule: Q01DX009 (ip), vehicle: water
  T/C: 150 % of control
dose: 1.56 mg/kg/injection, schedule: Q01DX009 (ip), vehicle: water
  T/C: 161 % of control
dose: 3.13 mg/kg/injection, schedule: Q01DX009 (ip), vehicle: water
  T/C: 154 % of control and 182 % of control
dose: 4.7 mg/kg/injection, schedule: Q04DX003 (ip), vehicle: water
  T/C: 105 % of control and 106 % of control
dose: 6.25 mg/kg/injection, schedule: Q01DX009 (ip), vehicle: water
  T/C: 178 % of control and 201 % of control
dose: 12.5 mg/kg/injection, schedule: Q01DX001 (ip), vehicle: water
  T/C: 161 % of control
dose: 12.5 mg/kg/injection, schedule: Q01DX009 (ip), vehicle: water
  T/C: 196 % of control and 214 % of control
dose: 18.8 mg/kg/injection, schedule: Q04DX003 (ip), vehicle: water
  T/C: 123 % of control
dose: 25.0 mg/kg/injection, schedule: Q01DX001 (ip), vehicle: water
  T/C: 188 % of control
dose: 37.5 mg/kg/injection, schedule: Q04DX003 (ip), vehicle: water
  T/C: 203 % of control
dose: 75.0 mg/kg/injection, schedule: Q04DX003 (ip), vehicle: water
  T/C: 122 % of control
dose: 150.0 mg/kg/injection, schedule: Q04DX003 (ip), vehicle: water
  T/C: 100 % of control and 93 % of control

## O=c1c2cc(F)ccc2nnn1-c1ccccc1
dose: 12.5 mg/kg/injection, schedule: Q01DX009 (ip), vehicle: suspension in saline
  T/C: 88 % of control
dose: 25.0 mg/kg/injection, schedule: Q01DX009 (ip), vehicle: suspension in saline
  T/C: 98 % of control
dose: 50.0 mg/kg/injection, schedule: Q01DX009 (ip), vehicle: saline
  T/C: 86 % of control
dose: 50.0 mg/kg/injection, schedule: Q01DX009 (ip), vehicle: suspension in saline
  T/C: 107 % of control
dose: 200.0 mg/kg/injection, schedule: Q01DX009 (ip), vehicle: saline
  T/C: 90 % of control

## CC1=C(C#N)C(=O)OC1(C)C1CCCC(=O)C1 (stereo unspecified)
dose: 7.5 mg/kg/injection, schedule: Q01DX005 (ip), vehicle: saline with Tween-80
  T/C: 99 % of control
dose: 15.0 mg/kg/injection, schedule: Q01DX005 (ip), vehicle: saline with Tween-80
  T/C: 100 % of control
dose: 30.0 mg/kg/injection, schedule: Q01DX005 (ip), vehicle: saline with Tween-80
  T/C: 98 % of control
dose: 60.0 mg/kg/injection, schedule: Q01DX005 (ip), vehicle: saline with Tween-80
  T/C: 100 % of control and 107 % of control

## CSc1ccnc2cc(Cl)ccc12
dose: 50.0 mg/kg/injection, schedule: Q01DX005 (ip), vehicle: Klucel (hydroxypropylcellulose) (HPC)
  T/C: 96 % of control
dose: 100.0 mg/kg/injection, schedule: Q01DX005 (ip), vehicle: Klucel (hydroxypropylcellulose) (HPC)
  T/C: 106 % of control
dose: 200.0 mg/kg/injection, schedule: Q01DX005 (ip), vehicle: Klucel (hydroxypropylcellulose) (HPC)
  T/C: 110 % of control

## C=C1C(=O)OC2C3CCC2C1C3 (stereo unspecified)
dose: 12.5 mg/kg/injection, schedule: Q04DX003 (ip), vehicle: saline with Tween-80
  T/C: 101 % of control
[1]
  T/C: 115 % of control
dose: 50.0 mg/kg/injection, schedule: Q04DX003 (ip), vehicle: saline with Tween-80
  T/C: 100 % of control

## CS(=O)(=O)NC(=O)NC(=S)c1ccco1
dose: 100.0 mg/kg/injection, schedule: Q01DX001 (ip), vehicle: saline with Tween-80
  T/C: 105 % of control
dose: 200.0 mg/kg/injection, schedule: Q01DX001 (ip), vehicle: saline with Tween-80
  T/C: 102 % of control
dose: 400.0 mg/kg/injection, schedule: Q01DX001 (ip), vehicle: saline with Tween-80
  T/C: 97 % of control

## CCc1nn2c(-c3cnns3)nnc2s1
[2]
  T/C: 99 % of control
dose: 200.0 mg/kg/injection, schedule: Q01DX001 (ip), vehicle: Klucel (hydroxypropylcellulose) (HPC)
  T/C: 104 % of control
dose: 400.0 mg/kg/injection, schedule: Q01DX001 (ip), vehicle: Klucel (hydroxypropylcellulose) (HPC)
  T/C: 99 % of control

## CC(=O)C(C(=O)CCSCC(N)C(=O)O)C(SCC(N)C(=O)O)c1ccc(Cl)c(Cl)c1 (stereo unspecified)
dose: 50.0 mg/kg/injection, schedule: Q01DX005 (ip), vehicle: saline
  T/C: 103 % of control
dose: 100.0 mg/kg/injection, schedule: Q01DX005 (ip), vehicle: saline
  T/C: 103 % of control
dose: 200.0 mg/kg/injection, schedule: Q01DX005 (ip), vehicle: saline
  T/C: 102 % of control
